Here are results for 17 molecules from article PMC5867678 (Journal of Medicinal Chemistry, 2018).

Data set [1] can be described thus: Microsomal stability, human liver microsomes. It counts as in vitro ADME. The note with it: pooled human liver microsomes; for remaining at 0.5 h, 0.5 μM: 30 min (data in parentheses). (In general: Microsomes from liver hold many membrane-bound enzymes, among them those of drug oxidation.)
A short description of data set [2]: Microsomal stability, CD-1 mouse liver microsomes. The note with it: for remaining at 0.5 h, 0.5 μM: 30 min (data in parentheses). It counts as in vitro ADME.
The next data set can be described thus: Hamster pharmacokinetics. More on the design: species or system golden Syrian hamsters. The conditions noted are these: female, golden Syrian, in vivo, po.
For data set [3], the system named is Salmonella typhimurium (TA98 and TA100). Nature of the data set: Ames test (Mini-Ames reverse mutation screen). The note with it: strains TA98 and TA100, with or without S9. It counts as cell-based. From the text:
Two strains of Salmonella typhimurium (TA98 and TA100) were employed, in the presence and absence of metabolic activation (rat liver S9). Positive controls (2-aminoanthracene, 2-nitrofluorene, and sodium azide) and a negative (DMSO solvent) control were included.
(The Ames test uses bacterial strains that need an amino acid and regain growth without it when mutated back.)

The nature of another data set: Rat pharmacokinetics. More on the design: species or system Sprague-Dawley rats. The note with it: male, Sprague-Dawley, in vivo, po, 40 mg/kg. How it is done: All studies were conducted in fasted animals (either male Sprague-Dawley rats or female golden Syrian hamsters) by WuXi AppTec (Shanghai) Co., Ltd. Intravenous dosing (at 1 mg/kg for rats and 2 mg/kg for hamsters) utilized a solution formulation of 20% NMP and 40% PEG-400 in citrate buffer (pH 3). In rats, oral dosing (at 40–50 mg/kg) was as a suspension in 0.08% Tween 80 and 0.5% CMC in water, whereas PEG-400 was the vehicle employed for oral dosing in hamsters (at 40–50 mg/kg). Plasma samples (at 0.083 for iv only, 0.25, 0.5, 1, 2, 4, 8, and 24 h) were analyzed by LC–MS/MS, and the PK parameters were calculated using Phoenix WinNonlin software (version 6.3).

The nature of data set [4]: Permeability assay in MDCK-MDR1 cells. The conditions noted are these: dog.
Another data set can be described thus: Mouse pharmacokinetics. The note with it: in vivo; for AUC(0-t) / Cmax: female, BALB/c, 40 mg/kg; for AUC(0-t) / Cmax / bioavailability: po; for bioavailability: male.
The conditions of data set [5]: human, in vivo; cited from earlier work.
The test system of data set [6] is Salmonella typhimurium (TA98 and TA100). The conditions noted are these: cited from earlier work.
The test system of a further data set is Caco-2. Also on record: method as in PMID 25261338. The conditions noted are these: Caco-2 data; cited from earlier work.
For data set [7] the following is noted: cited from earlier work.

“Also recorded” adds a separate entry of the source. Read-outs that look alike come from different tables or passages of the source.

For `O=[N+]([O-])c1cn2c(n1)OC[C@@H](OCc1ccc(-c3ccc(OC(F)F)cc3)cn1)C2` [S-92], the share remaining at 0.5 h, 0.5 μM in data set [1] and in data set [2] was greater than 70% throughout.

On to `O=[N+]([O-])c1cn2c(n1)OC[C@@H](OCc1ccc(-c3ccc(OC(F)(F)F)cc3F)cn1)C2` [S-89], for which the amount remaining at 0.5 h, 0.5 μM in [1] and in data set [2] was greater than 70% each time.

On to `O=[N+]([O-])c1cn2c(n1)OC[C@H](OCc1ccc(-c3ccc(F)cc3F)cn1)C2` [R-96], for which the amount remaining at 1 h, 1 μM in data set [1] and in data set [2] was 57 to 59% in each case. Besides, the bioavailability in “Hamster pharmacokinetics” was 21 to 37%.

On to `O=[N+]([O-])c1cn2c(n1)OC[C@H](Oc1ccc(OC(F)(F)F)cc1)C2` [R-6, (6R)-2-Nitro-6-[4-(trifluoromethoxy)phenoxy]-6,7-dihydro-5H-imidazo[2,1-b][1,3]oxazine], for which the “mutagenic effect (Ames test)” value in data set [3] was “negative; also recorded: no ^d”. In addition, the AUC(0-t) in “Rat pharmacokinetics” is 80.6 µg·h/mL; in “Mouse pharmacokinetics” it was 272 µg·h/mL. For the same molecule, the Cmax in “Rat pharmacokinetics” turned out to be 5200 ng/mL; in “Mouse pharmacokinetics”, 21000 ng/mL. Besides, the Papp A→B at […], 2 µM in [4] is 32.4 ×10⁻⁶ cm/s.

As to `O=[N+]([O-])c1cn2c(n1)OC[C@@H](OCc1ccc(OC(F)(F)F)cc1)C2` [S-1, (6S)-2-nitro-6-{[4-(trifluoromethoxy)benzyl]oxy}-6,7-dihydro-5H-imidazo[2,1-b][1,3]oxazine], in data set [5], the “half-life in clinical trials for TB” value is 16 to 18 h.

On to `C[C@]1(COc2ccc(OC(F)(F)F)cc2)Cn2cc([N+](=O)[O-])nc2O1` [compound 4], for which the “mutagenic effect (Ames test)” value in [6] is “no”. For the same molecule, in the data set on Caco-2, the “permeability, Papp A to B” value is 22.6 ×10^–6 cm/s and the “permeability, Papp B to A” value is reported as 24.7 ×10^–6 cm/s. In data set [7], the “LogD (measured)” value is 3.10.

Turning to `O=[N+]([O-])c1cn2c(n1)OC[C@H](Oc1ccc(C(F)(F)F)cn1)C2` [R-136, (6R)-2-Nitro-6-{[5-(trifluoromethyl)pyridin-2-yl]oxy}-6,7-dihydro-5H-imidazo[2,1-b][1,3]oxazine], the amount remaining at 1 h, 1 μM in data set [1] and in data set [2] was 90 to 92% in each case. For the same molecule, the “mutagenic effect (Ames test)” value in data set [3] is recorded as “positive”.

In turn, `O=[N+]([O-])c1cn2c(n1)OCC(COc1ccc(OC(F)(F)F)cc1)C2` (stereo not drawn) [compound 24] gave a half-life in “Mouse pharmacokinetics” (Swiss albino, iv, 1 mg/kg) of 2 h.

In the case of `CSc1ccc(OCc2ncc([N+](=O)[O-])n2C)cc1` [fexinidazole], the Ames test result in data set [6] was “positive”.

Take `O=[N+]([O-])c1cn2c(n1)OC[C@@H](OCc1ccc(-c3ccc(OC(F)(F)F)cc3Cl)cn1)C2` [S-91]: the amount remaining at 0.5 h, 0.5 μM in data set [1] and in data set [2] was greater than 70% each time.

In the case of `O=[N+]([O-])c1cn2c(n1)OCC(COc1ccc(-c3ccc(OC(F)(F)F)cc3)nc1)C2` (stereo not drawn) [compound 116], the bioavailability in the data set “Mouse pharmacokinetics” (Swiss albino) was in the range of 11 to 15%.

`O=[N+]([O-])c1cn2c(n1)OC[C@H](OCc1ccc(-c3ccc(F)cc3F)nc1)C2` [R-106] showed a bioavailability in the data set “Hamster pharmacokinetics” of 21 to 37%.

Turning to `O=[N+]([O-])c1cn2c(n1)OC[C@@H](OCc1cccc(-c3ccc(F)cc3)n1)C2` [S-81], the amount remaining at 0.5 h, 0.5 μM in [1] and in [2] was greater than 70% each time.

In the data set “Mouse pharmacokinetics”, `O=[N+]([O-])c1cn2c(n1)OC[C@H](OCc1ccc(-c3ccc(OC(F)(F)F)cc3F)cn1)C2` [R-89] returned an AUC(0-t) of 265 µg·h/mL and a Cmax of 32000 ng/mL.

Turning to `O=[N+]([O-])c1cn2c(n1)OCC(COc1ccc(-c3ccc(F)cc3)nc1)C2` (stereo not drawn) [compound 117], in “Mouse pharmacokinetics” (Swiss albino), the bioavailability is 11 to 15%.

For `O=[N+]([O-])c1cn2c(n1)OC[C@@H](OCc1cccc(-c3ccc(OC(F)(F)F)cc3)n1)C2` [S-77], the share remaining at 0.5 h, 0.5 μM in data set [1] and in data set [2] was greater than 70% each time.

Take `O=[N+]([O-])c1cn2c(n1)OC[C@H](OCc1ccc(-c3ccc(OC(F)(F)F)cc3)cn1)C2` [R-84]: in the data set “Mouse pharmacokinetics”, the AUC(0-t) was determined as 211 µg·h/mL and the concentration peaked (Cmax) at 16000 ng/mL.

Usually amount remaining stands for what is left of the initial amount, in per cent. The bioavailability is the share of a dose that reaches the circulation, judged against a reference dose that is usually intravenous. By AUC(0-t) is commonly meant exposure summed from dosing to a finite time, without extrapolation to infinity. The low end stands for low exposure, the high end for high exposure. A word on the Cmax: it is the peak of the concentration-time curve. What is called Papp A→B is how fast a substance crosses the layer from the apical side. A word on the half-life: it is the time in which the quantity being followed falls by half. A lower half-life goes with rapid decline.
